Data on six compounds can be found in patent US20260092300A1, “MINIMUM INHIBITORY CONCENTRATION RECOGNITION METHOD, APPARATUS AND DEVICE, AND STORAGE MEDIUM” (AUTOBIO LABTEC INSTRUMENTS CO., LTD., priority 2022, published 2026).

Common to all, as to assay type: cell-based
Test [1] deals with ATCC25923 Staphylococcus aureus. Briefly: MIC determined by the method (lensless imaging, Siamese neural network image similarity). As to conditions: incubation 2 hours to 4 hours at 37±2° C. An excerpt: (§1) The antimicrobial susceptibility test plate is a commonly used experimental equipment in antimicrobial susceptibility tests, which consists of multiple regularly arranged microwells. In practice, the antimicrobial susceptibility test plate is of different specifications, generally including a 96-well plate and a 128-well plate. In the implementation, the operator first prepares the bacterial suspension of a sample (that is, the to-be-tested bacterial strain); opens an antibiotic-coated antimicrobial susceptibility test plate, of which the microwells are pre-coated with the to-be-tested antibiotic with different gradient concentrations (that is, the preset gradient concentrations), where the concentration gradients of the antibiotic may be designed according to the rules of the clinical laboratory standard institute; adds the bacterial suspension to the microwells via a sample loading well; and places the antimicrobial susceptibility test plate on the imaging platform upon completing the sample loading. The processor controls the imaging platform to perform lensless imaging on the microwells at an initial time instant immediately after the sample is added (that is, the time instant of not completing inhibition) and a time instant immediately after the preset incubation time period (that is, the time instant of completing bacteria inhibition) and saves the data, so as to obtain the testing images and the test control images of the to-be-tested bacterial strain. Alternatively, the processor performs lensless imaging on the microwells and the control microwells at the time instant immediately after the preset incubation time period and saves the data.
(§2) For example, the determination result of the minimum inhibitory concentrations of two commonly used clinical quality control strains (ATCC25922 Escherichia coli and ATCC25923 Staphylococcus aureus) through the method according to the embodiments validates the feasibility of the method. Preparation of the bacterial strain includes: sub-culturing the strain for the second to fourth generations for standby; selecting colonies to prepare a bacterial suspension with a McFarland 0.5 standard; pre-coating antibiotic in the microwells of the antimicrobial susceptibility test plate (the concentration of the antibiotic is prepared according to CLSI standard); mixing the bacterial suspension with agarose at a concentration of 0.6% to 1.0% and a temperature of 37° C. to 40° C. in a dilution ratio of 1:300 to 1:500; adding the mixture sample respectively to the microwells by centrifugation; and then placing the antimicrobial susceptibility test plate in an incubator (37±2° C.) to incubate for 2 hours to 4 hours. Data collection includes: when the incubation is completed, placing the antimicrobial susceptibility test plate on the lensless imaging platform to take the images of the wells (that is, microwells) and recording the images corresponding to different antibiotic concentrations, where the minimum inhibitory concentration (MIC) determined by using the method in the embodiments is obtained based on the images. As shown in Table 1 and Table 2, it can be seen from the MIC results determined through the method and antimicrobial susceptibility results of the clinical gold standard broth microdilution test (BMD) that the MIC results determined through the method according to the embodiment are more accurate and reliable, and the MIC results are determined in 2 hours to 4 hours through the method according to the embodiment, which is more efficient.

In test [2] the test system is ATCC25922 Escherichia coli. Described as above. As to conditions: incubation 2 hours to 4 hours at 37±2° C.
Source text: as §1, §2

Test [3] concerns ATCC25922 Escherichia coli. Briefly: Broth microdilution test (BMD). As to conditions: clinical gold standard broth microdilution test. Background: Broth dilution looks for growth in wells or tubes with falling amounts of substance.
The subject of test [4] is ATCC25923 Staphylococcus aureus. Put plainly: Broth microdilution test (BMD). As to conditions: clinical gold standard broth microdilution test.

Converted amounts (≈) assume the structure as drawn.

One may read the MIC as the smallest concentration in the dilution series that meets the test's criterion for growth inhibition. Low readings indicate a more susceptible organism, high ones a less susceptible organism. Take `CO[C@@]1(NC(=O)Cc2cccs2)C(=O)N2C(C(=O)O)=C(COC(N)=O)CS[C@@H]21` [Cefoxitin]: the MIC in test [1] was 4 µg/mL (≈ 9.36 µM); in test [2], 1 µg/mL (≈ 2.34 µM); in test [3], 2 to 4 µg/mL (≈ 4.68 to 9.36 µM); in test [4], 1 to 4 µg/mL (≈ 2.34 to 9.36 µM).
On to `CC[C@H]1OC(=O)[C@H](C)[C@@H](O[C@H]2C[C@@](C)(OC)[C@@H](O)[C@H](C)O2)[C@H](C)[C@@H](O[C@@H]2O[C@H](C)C[C@H](N(C)C)[C@H]2O)[C@](C)(O)C[C@@H](C)C(=O)[C@H](C)[C@@H](O)[C@]1(C)O` [Erythromycin], for which the MIC in test [1] was 0.5 µg/mL (≈ 0.681 µM); in test [4] it was 0.25 to 0.5 µg/mL (≈ 0.341 to 0.681 µM).
On to `CC1(C)S[C@@H]2[C@H](NC(=O)[C@H](N)c3ccccc3)C(=O)N2[C@H]1C(=O)O` [Ampicillin], for which the MIC in test [1] came out at 1 µg/mL (≈ 2.86 µM); in test [2], 4 µg/mL (≈ 11.4 µM); in test [3] it was 4 µg/mL (≈ 11.4 µM); in test [4], 1 µg/mL (≈ 2.86 µM).
`C[C@@H](O)[C@H]1C(=O)N2C(C(=O)O)=C(SCCN=CN)C[C@H]12` [Imipenem]: the figures for the MIC in test [2] and in test [3] were 0.12 µg/mL (≈ 0.401 µM) and 0.06 to 0.25 µg/mL (≈ 0.2 to 0.835 µM), respectively.
As to `NCC[C@H](O)C(=O)N[C@@H]1C[C@H](N)[C@@H](O[C@H]2O[C@H](CN)[C@@H](O)[C@H](O)[C@H]2O)[C@H](O)[C@H]1O[C@H]1O[C@H](CO)[C@@H](O)[C@H](N)[C@H]1O` [Amikacin], the figures for the MIC in test [2] and in test [3] were 4 µg/mL (≈ 6.83 µM) and 1 to 4 µg/mL (≈ 1.71 to 6.83 µM), respectively.
With Gentamycin, in test [2], the “The method (MIC)” value was 0.25 µg/mL. Also, the “BMD (MIC)” value in test [3] was 0.25 to 0.5 µg/mL.
